Where a name gives a salt, the structure may show the parent alone. Read-outs that look alike come from different tables or passages of the source.
How the values were obtained:
[1] = molecular target: wild-type HIV-1 protease (Human immunodeficiency virus type 1 group M subtype B, UniProt P04585); experiment: Assay for inhibition of microbial expressed HIV protease; format: biochemical
Method: Assay for Inhibition of Microbial Expressed HIV Protease
Inhibition studies of the reaction of the protease (which was expressed in Eschericia coli) with a peptide substrate [Val-Ser-Gln-Asn-(betanapthyl)Ala-Pro-Ile-Val]. The inhibitor is first preincubated with the enzyme in assay buffer (50 mM sodium acetate, pH 5.5, 100 mM NaCl, and 0.1% BSA) for 30 minutes at room temperature. Substrate is added to 440 micromolar in a total volume of 80 microliters containing 5 picomolar HIV-1 protease, and the reaction is incubated for 1 hour at 30° C. The reaction is quenched by addition of 120 microliters of 10% phosphoric acid, and product formation is determined after separation of product and substrate on a Vydac C18 column connected to an Alliance high performance liquid chromatography system (Waters Corporation). The extent of inhibition of the reaction is determined from the peak area of the products.

[2] = test system: acute HIV infection of T-lymphoid cells; experiment: Assay for inhibition of HIV replication (spread assay); format: cell-based, HIV-1; conditions: Human immunodeficiency virus 1, T-lymphoid
Method: • Assay for Inhibition of HIV Replication
Assays for the inhibition of acute HIV infection of T-lymphoid cells were conducted in accordance with Vacca, J. P. et al., Proc. Natl. Acad. Sci. USA 1994, 91: 4096.

[3] = wild-type HIV-1 protease expressed in E. coli, peptide substrate, pH 5.5, read-out: Enzyme Inhibition - IC50

Row | Compound | IC50 [1, 3] | IC95 ([2]; read-out: Spread - IC95) | IC50 [1] | IC95 ([2]; read-out: Spread - IC95 (nM))
1 | CC[C@@H](CCC[C@@H](CO)N(C(C)C)S(=O)(=O)c1ccc(CO)cc1)NC(=O)[C@@H](NC(=O)OC)C(c1ccccc1)c1ccccc1 [Example G19, N-{(1S,5S)-1-ethyl-6-hydroxy-5-[{[4-(hydroxymethyl)phenyl]sulfonyl}(isopropyl)amino]hexyl}-Nα-(methoxycarbonyl)-β-phenyl-L-phenylalaninamide] | 0.076 nM | 43 nM | – | –
2 | COC(=O)N[C@H](C(=O)N[C@H](C)CCC[C@@H](CO)N(CCC(C)C)S(=O)(=O)c1ccc(CO)cc1)C(c1ccccc1)c1ccccc1 [Example J5, N-{(1R,5S)-6-hydroxy-5-[{[4-(hydroxymethyl)phenyl]sulfonyl}(3-methylbutyl)amino]-1-methylhexyl}-Nα-(methoxycarbonyl)-β-phenyl-L-phenylalaninamide] | 0.291 nM | 192 nM | – | –
3 | COC(=O)N[C@H](C(=O)N[C@H](CCC[C@@H](CO)N(CCC(C)C)S(=O)(=O)c1ccc(CO)cc1)C1CC1)C(c1ccc(F)cc1)c1ccc(F)cc1 [Example J16, N-{(1R,55)-1-cyclopropyl-6-hydroxy-5-[{[4-(hydroxymethyl)phenyl]sulfonyl}(3-methylbutyl)amino]hexyl}-4-fluoro-β-(4-fluorophenyl)-Nα-(methoxycarbonyl)-L-phenylalaninamide] | 0.01 nM | 25 nM | – | –
4 | COC(=O)N[C@H](C(=O)N[C@@H](CCC[C@@H](CO)N(CCC(C)C)S(=O)(=O)c1ccc(CO)cc1)C(F)(F)F)C(c1ccccc1)c1ccccc1 [Example J7, N-[(1S,5S)-6-hydroxy-5-[{[4-(hydroxymethyl)phenyl]sulfonyl}(3-methylbutyl)amino]-1-(trifluoromethyl)hexyl]-Nα-(methoxycarbonyl)-β-phenyl-L-phenylalaninamide] | 0.623 nM | 359 nM | – | –
5 | CN[C@H](C(=O)NC(C)(C)CCC[C@@H](CO)N(C(C)C)S(=O)(=O)c1ccc(N)cc1)C(c1ccccc1)c1ccccc1 [Example L9, N-{(5S)-5-[[(4-aminophenyl)sulfonyl](isopropyl)amino]-6-hydroxy-1,1-dimethylhexyl}-Nα-methyl-β-phenyl-L-phenylalaninamide hydrochloride] | – | 26 nM | 0.1 nM | –
6 | CCCN([C@H](CO)CCC[C@H](CC)NC(=O)[C@@H](NC)C(c1ccccc1)c1ccccc1)S(=O)(=O)c1ccc(CO)cc1 [Example J38, N-{(1S,5S)-1-ethyl-6-hydroxy-5-[{[4-(hydroxymethyl)phenyl]sulfonyl}(propyl)amino]hexyl}-Nα-methyl-β-phenyl-L-phenylalaninamide] | 0.098 nM | 34 nM | – | –
7 | COC(=O)N[C@@H](Cc1ccccc1Cl)C(=O)N[C@@H](C)CCC[C@@H](CO)N(CC(C)C)S(=O)(=O)c1ccc(CO)cc1 [Example G2, 2-chloro-N-{(1S,5S)-6-hydroxy-5-[{[4-(hydroxymethyl)phenyl]sulfonyl}(isobutyl)amino]-1-methylhexyl}-Nα-(methoxycarbonyl)-L-phenylalaninamide] | 0.082 nM | 14 nM | – | –
8 | CCCN([C@H](CO)CCC[C@H](CC)NC(=O)[C@@H](N)C(c1ccccc1)c1ccccc1)S(=O)(=O)c1ccc(CO)cc1 [Example J39, N-{(1S,5S)-1-ethyl-6-hydroxy-5-[{[4-(hydroxymethyl)phenyl]sulfonyl}(propyl)amino]hexyl}-β-phenyl-L-phenylalaninamide] | 0.016 nM | 39 nM | – | –
9 | COC(=O)N[C@@H](Cc1ccccc1Cl)C(=O)N[C@H](CCC[C@@H](CO)N(C(C)C)S(=O)(=O)c1ccc(CO)cc1)C1CC1 [Example I2, 2-chloro-N-{(1R,5S)-1-cyclopropyl-6-hydroxy-5-[{[4-(hydroxymethyl)phenyl]sulfonyl}(isopropyl)amino]hexyl}-Nα-(methoxycarbonyl)-L-phenylalaninamide] | 2.25 nM | 422 nM | – | –
10 | CC[C@@H](CCC[C@@H](CO)N(CCC(C)C)S(=O)(=O)c1ccc(N)cc1)NC(=O)[C@@H](NC(=O)OCc1ccncc1)C(c1ccccc1)c1ccccc1 [Example F10, N-{(1S,55)-5-[[(4-aminophenyl)sulfonyl](3-methylbutyl)amino]-1-ethyl-6-hydroxyhexyl}-β-phenyl-Nα-[(pyridin-4-ylmethoxy)carbonyl]-L-phenylalaninamide] | 0.01 nM | 17 nM | – | –
11 | COC(=O)N[C@H](C(=O)N[C@H](CCC[C@@H](CO)N(CC(C)C)S(=O)(=O)c1ccc(CO)cc1)C1CC1)C(c1ccc(F)cc1)c1ccc(F)cc1 [Example J23, N-{(1R,5S)-1-cyclopropyl-6-hydroxy-5-[{[4-(hydroxymethyl)phenyl]sulfonyl}(isobutyl)amino]hexyl}-4-fluoro-β-(4-fluorophenyl)-Nα-(methoxycarbonyl)-L-phenylalaninamide] | 0.025 nM | 60 nM | – | –
12 | CCN([C@H](CO)CCC[C@@H](NC(=O)[C@@H](NC(=O)OC)C(c1ccccc1)c1ccccc1)C1CC1)S(=O)(=O)c1ccc(N)cc1 [Example I10, N-{(1R,5S)-5-[[(4-aminophenyl)sulfonyl](ethyl)amino]-1-cyclopropyl-6-hydroxyhexyl}-Nα-(methoxycarbonyl)-β-phenyl-L-phenylalaninamide] | 0.733 nM | 105 nM | – | –
13 | COC(=O)N[C@@H](Cc1ccccc1Cl)C(=O)N[C@H](CCC[C@@H](CO)N(CC(C)C)S(=O)(=O)c1ccc(CO)cc1)C1CC1 [Example I1, 2-chloro-N-{(1R,5S)-1-cyclopropyl-6-hydroxy-5-[{[4-(hydroxymethyl)phenyl]sulfonyl}-(isobutyl)amino]hexyl}-Nα-(methoxycarbonyl)-L-phenylalaninamide] | 0.634 nM | 155 nM | – | –
14 | CCC[C@@H](CCC[C@@H](CO)N(CCC(C)C)S(=O)(=O)c1ccc(N)cc1)NC(=O)[C@@H](NC(=O)OC)C(c1ccccc1)c1ccccc1 [Example D6, N-{(1S,5S)-5-[[(4-aminophenyl)sulfonyl](3-methylbutyl)amino]-6-hydroxy-1-propylhexyl}-Nα-(methoxycarbonyl)-β-phenyl-L-phenylalaninamide] | 0.106 nM | 56 nM | – | –
15 | COC(=O)N[C@@H](Cc1ccccc1Cl)C(=O)N[C@@H](C)CCC[C@@H](CO)N(CCC(C)C)S(=O)(=O)c1ccc(N)cc1 [Example D7, N-{(1S,5S)-5-[[(4-aminophenyl)sulfonyl](3-methylbutyl)amino]-6-hydroxy-1-methylhexyl}-2-chloro-Nα-(methoxycarbonyl)-L-phenylalaninamide] | 0.064 nM | 19 nM | – | –
16 | CCCN([C@H](CO)CCC[C@H](CC)NC(=O)[C@@H](NC(=O)OC)C(c1ccccc1)c1ccccc1)S(=O)(=O)c1ccc(CO)cc1 [Example J34, N-{(1S,5S)-1-ethyl-6-hydroxy-5-[{[4-(hydroxymethyl)phenyl]sulfonyl}(propyl)amino]hexyl}-Nα-(methoxycarbonyl)-β-phenyl-L-phenylalaninamide] | 0.041 nM | 20 nM | – | –
17 | COC(=O)N[C@H](C(=O)N[C@@H](C)CCC[C@@H](CO)N(CCC(C)C)S(=O)(=O)c1ccc2ncsc2c1)C(c1ccccc1)c1ccccc1 [Example D5, N-{(1S,5S)-5-[(1,3-benzothiazol-6-ylsulfonyl)(3-methylbutyl)amino]-6-hydroxy-1-methylhexyl}-Nα-(methoxycarbonyl)-β-phenyl-L-phenylalaninamide] | 0.042 nM | 9 nM | – | –
18 | COC(=O)N[C@H](C(=O)N[C@H](CCC[C@@H](CO)N(CCC(C)C)S(=O)(=O)c1ccc(CO)c(F)c1)C1CC1)C(c1ccc(F)cc1)c1ccc(F)cc1 [Example E2, N-{(1R,5S)-1-cyclopropyl-5-[{[3-fluoro-4-(hydroxymethyl)phenyl]sulfonyl}(3-methylbutyl)amino]-6-hydroxyhexyl}-4-fluoro-β-(4-fluorophenyl)-Nα-(methoxycarbonyl)-L-phenylalaninamide] | 0.017 nM | 39 nM | – | –
19 | CCN([C@H](CO)CCC[C@H](C)NC(=O)[C@@H](NC(=O)OC)C(c1ccccc1)c1ccccc1)S(=O)(=O)c1ccc(CO)cc1 [Example G1, N-[(1S,5S)-5-(ethyl{[4-(hydroxymethyl)phenyl]sulfonyl}amino)-6-hydroxy-1-methylhexyl]-Nα-(methoxycarbonyl)-β-phenyl-L-phenylalaninamide] | 0.05 nM | 37 nM | – | –
20 | COC(=O)N[C@H](C(=O)N[C@H](CCC[C@@H](CO)N(CC(C)C)S(=O)(=O)c1ccc(N)cc1)C(C)C)C(c1ccccc1)c1ccccc1 [Example D14, N-{(1R,5S)-5-[[(4-aminophenyl)sulfonyl](isobutyl)amino]-6-hydroxy-1-isopropylhexyl}-Nα-(methoxycarbonyl)-β-phenyl-L-phenylalaninamide] | 0.519 nM | 95 nM | – | –
21 | CCCN([C@H](CO)CCC[C@@H](NC(=O)[C@@H](NC(=O)OC)C(c1ccccc1)c1ccccc1)C(F)(F)F)S(=O)(=O)c1ccc(N)cc1 [Example H1, N-[(1R,5S)-5-[[(4-aminophenyl)sulfonyl](propyl)amino]-6-hydroxy-1-(trifluoromethyl)hexyl]-Nα-(methoxycarbonyl)-β-phenyl-L-phenylalaninamide] | 0.022 nM | – | – | 14 nM
